Measurements as given in BindingDB's records for doi:10.1016/j.ejmech.2018.09.067 (University of Louvain, 2018).

Columns and labels:
[1] = Inhibition of human IDO using L-tryptophan as substrate after 30 mins by Ehrlich's reagent based assay
[2] = Inhibition of human carbonic anhydrase 2 using 4-nitrophenyl acetate as substrate after 20 mins by spectrophotometric analysis
[3] = Inhibition of human recombinant Arg1 using L-arginine as substrate after 5 mins in presence of [guanidino-14C]-L-arginine by liquid scintillation counting analysis
[4] = Inhibition of human recombinant C-terminal His-tagged PHGDH (1 to 533 residues) expressed in Escherichia coli using 3-phosphoglycerate as substrate
[5] = Displacement of [3H]8-OH-DPAT from recombinant human 5-HT1A receptor after 60 mins by scintillation counting analysis
[6] = Displacement of [3H]WY 14643 from human recombinant PPARalpha receptor at 10 uM after 120 mins by scintillation counting analysis relative to control
[7] = Inhibition of human recombinant PDE3A using [3H]cAMP after 20 mins by scintillation counting analysis
[8] = Inhibition of human thrombin using Z-GPR-AMC as substrate after 30 mins by fluorimetric analysis
[9] = Displacement of [125I]pirenzepine from human recombinant M1 receptor after 60 mins by scintillation counting analysis
[10] = Inhibition of human recombinant full-length LDHA using sodium pyruvate as substrate after 60 mins by resazurin dye-based assay
[11] = Inhibition of human recombinant acetylcholinesterase using acetylthiocholine as substrate after 30 mins by spectrophotometric analysis
[12] = Displacement of [3H]CP 55940 from human recombinant CB1 receptor after 120 mins by scintillation counting analysis
[13] = Inhibition of human recombinant ACE using Abz-FRK(Dnp)-P-OH as substrate after 30 mins by fluorimetric analysis
[14] = Inhibition of human MAOA using kynuramine as substrate after 20 mins by spectrophotometric analysis
[15] = Displacement of [3H]muscimol from recombinant human GABAalpha1beta2gamma2 measured after 120 mins by scintillation counting method
[16] = Inhibition of human recombinant Lck using Ulight-Poly GAT[EAY(1:1:1)]n as substrate after 10 mins by LANCE analysis
[17] = Inhibition of human recombinant COX1 using arachidonic acid as substrate after 3 mins by fluorimetric analysis

Question: For `O=C(NNC(=S)Nc1ccc(Cl)c(Cl)c1)c1ccccc1O`, which IC50 [1] is on record?
Answer: The IC50 was 37000 nM.

Question: And the IC50 [2]?
Answer: Its IC50 is 29 nM.

Question: And the IC50 (Inhibition of human MAGL)?
Answer: Its IC50 is 363 nM.

Question: What about the IC50 [3] of the same compound?
Answer: The IC50 was 13000 nM.

Question: What about the IC50 [4] of the same compound?
Answer: The IC50 was 8700 nM.

Question: What about the IC50 [5] of the same compound?
Answer: The IC50 was 0.6 nM.

Question: And the IC50 [6]?
Answer: Its IC50 is 52 nM.

Question: And the IC50 [7]?
Answer: Its IC50 is 490 nM.

Question: And the IC50 [8]?
Answer: Its IC50 is 0.103 nM.

Question: What about the IC50 [9] of the same compound?
Answer: The IC50 was 22 nM.

Question: And the IC50 [10]?
Answer: The IC50 was 577000 nM.

Question: What about the IC50 [11] of the same compound?
Answer: The IC50 was 520 nM.

Question: And the IC50 [12]?
Answer: Its IC50 is 0.58 nM.

Question: And the IC50 [13]?
Answer: The IC50 was 0.7 nM.

Question: What about the IC50 [14] of the same compound?
Answer: Its IC50 is 40 nM.

Question: What about the IC50 [15] of the same compound?
Answer: Its IC50 is 75 nM.

Question: And the IC50 [16]?
Answer: The IC50 was 31 nM.

Question: And the IC50 [17]?
Answer: Its IC50 is 8 nM.
